Assay [1] concerns somatostatin receptors (SSTR-1,2,3,4 or 5). Kind of assay: Radioligand binding assay, negative control peptides. To be noted: irrelevant peptides tested in the same assays. The procedure: (§1) The somatostatin analogs were tested for their potency in inhibition of the binding of ^125 I-Tyr^11 -SRIF (based on the method described by Raynor et. al., Molecular Pharmacology 43, 838-844, 1993) to membrane preparations expressing the transmembranal somatostatin receptors (SSTR-1,2,3,4 or 5). The receptor preparations used for these tests were either from the cloned receptors selectively and stably expressed in Chinese Hamster Ovary (CHO) cells or from cell lines naturally expressing the SSTRs. […] The binding reactions were filtered, the filters were washed and the bound radioactivity was counted in gamma counter. […] In order to validate positive signals of the binding tests, and to eliminate non-specific signals, samples of irrelevant peptides, such as GnRH, that were synthesized and handled using the same procedures, were tested in the same assays as negative control samples.

The target in assay [2] is T1, rat SSTR-5 (Rattus norvegicus, UniProt P30938).
T1 sequence (P30938 1-363): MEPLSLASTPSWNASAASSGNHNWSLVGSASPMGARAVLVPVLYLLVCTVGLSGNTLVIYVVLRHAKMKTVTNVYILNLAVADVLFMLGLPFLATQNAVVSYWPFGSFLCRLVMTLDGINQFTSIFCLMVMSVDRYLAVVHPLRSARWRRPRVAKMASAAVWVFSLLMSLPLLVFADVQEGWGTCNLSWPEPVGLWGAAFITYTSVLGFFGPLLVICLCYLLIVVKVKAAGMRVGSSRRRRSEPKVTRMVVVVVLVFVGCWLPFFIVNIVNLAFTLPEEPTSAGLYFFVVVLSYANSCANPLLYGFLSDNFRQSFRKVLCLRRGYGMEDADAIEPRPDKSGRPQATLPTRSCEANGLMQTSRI
To be noted: Table 22; known SST analogs, literature values; read-out: IC50 value rSSTR 5; cited from earlier work.

Assay [3] deals with T2, SSTR-1 (Homo sapiens, UniProt P30872). Particulars: Table 22; known SST analogs, literature values; cited from earlier work.
Assay [4] relates to SSTR-2. Particulars: Table 22; known SST analogs, literature values; cited from earlier work.
Assay [5] has as its target T3, SSTR-3 (Homo sapiens, UniProt P32745). To be noted: Table 22; known SST analogs, literature values; cited from earlier work.
Assay [6] concerns the target T1, rat SSTR-5. The assay can be described thus: Radioligand binding, inhibition of 125I-Tyr11-SRIF binding to cloned rat SSTR-5. Here is the method: as §1
Assay [7] addresses T3, SSTR-3. The assay can be described thus: Radioligand binding, inhibition of 125I-Tyr11-SRIF binding to cloned SSTR-3. The procedure: as §1
The target in assay [8] is T4, SSTR-4 (Homo sapiens, UniProt P31391). Kind of assay: Radioligand binding, inhibition of 125I-Tyr11-SRIF binding to cloned SSTR-4. Here is the method:
as §1

For assay [9], the target named is T2, SSTR-1. The assay can be described thus: Radioligand binding, inhibition of 125I-Tyr11-SRIF binding to cloned SSTR-1. The procedure:
as §1

Assay [10] has as its target T5, human SSTR-5 (Homo sapiens, UniProt P35346). The assay can be described thus: Radioligand binding, inhibition of 125I-Tyr11-SRIF binding to cloned human SSTR-5. The procedure: as §1
In another assay the test system is plasma amylase release. The assay can be described thus: Bombesin stimulated plasma amylase release in rats. Format: in vivo, rat. Here is the method: (§2) Inhibition of either insulin or amylase release has been reported (Reisine and Bell, ibid.) to be highly correlated with affinity to the SST receptor subtype SSTR-5, while i inhibition of pituitary growth hormone (GH) release, pancreatic glucagon, and gastric acid secretion were SSTR-2 mediated. […] These doses were compared to the synthetic analog SMS-201 995 administered at a dose of 10 μg/kg.
(§3) Male Wister rats (weighing 200-220 g) were anaesthetized with pentobarbital (60 mg/kg) by the intraperitoneal (IP) route. The animals were allowed free access to food and water until 18 h before experiment, when all food (but not the water) was withdrawn. Furthermore the animals were housed in cages with wide mesh wire bottoms to prevent coprophagia (feeding on excrement).
(§4) After cannulation, a 0.7 ml sample of blood was drawn from the jugular vein, and transferred into an Eppendorf tube containing 20 IU heparin solution 5000 IU/ml. One minute later the peptides were administered subcutaneously (SC in 0.2 ml of 0.9% NaCl). Control rats were pretreated with 0.2 ml of 0.9% NaCl. At time 0 (5 min. after collection of baseline blood sample-1) a bombesin infusion (50 nmol/kg/hr) was started in all animals. Additional blood samples were collected at constant time intervals of 60, 90 and 120 min. during bombesin infusion.
(§5) Blood samples were collected into ice-cold tubes containing heparin (20 IU/ml) and were centrifuged (1500 g×10 min.). Plasma samples were frozen and kept at -20° C. until assayed for amylase and lipase.
Amylase levels were measured in plasma with the commercial (Raichem™) Amylase reagent.

A further assay deals with insulin release. Kind of assay: Glucose induced insulin release in rats. It is filed as in vivo, rat.
The test system of assay [11] is SSTR-2. Kind of assay: Radioligand binding, inhibition of 125I-Tyr11-SRIF binding to cloned SSTR-2. The procedure: as §1
In a further assay the test system is plasma lipase release. The assay can be described thus: Bombesin stimulated plasma lipase release in rats. Format: in vivo, rat. The procedure:
as §2, §3, §4, §5
Lipase levels were measured in plasma with a commercial kit (Randox™).

For assay [12], the system named is Growth Hormone (GH) release. The assay can be described thus: Inhibition of growth hormone release in rats. Format: in vivo, rat. Particulars: Sprague-Dawley male rats, 10 mg/kg subcutaneously, versus saline. The procedure: In vivo determination of the pharmacodynamic properties of cyclic peptide SST analogs was carried out in rats, according to known procedures. Inhibition of Growth Hormone (GH) release as a result of peptide administration was measured in Sprague-Dawley male rats. […] Time course profiles for GH release under constant experimental conditions were measured.
Adult male Sprague-Dawley rats, specific pathogen free (SPF), weighing 200-350 g, were maintained on a constant light-dark cycle (light from 8:00 to 20:00 h), temperature (21±3° C.), and relative humidity (55±10%). Laboratory chow and tap water were available ad libitum. On the day of the experiment, rats were anesthetized with pentobarbitone (50 mg/kg). […] A single blood sample (0.6 ml) was taken from the exposed cannulated jugular vein for the determination of the basal GH levels (-15 min.). Immediately thereafter the appropriate peptide treatment was administered. […] A physiological saline solution (0.9% NaCl) was administered as a control. All peptides were administered subcutaneously in a final volume of 0.2 ml. Further sampling was carried out at 15, 30, 60, and 90 minutes after peptide administration. […]
Rat growth hormone (rGH) [^125 I] levels were determined by means of a radioimmunoassay kit (Amersham). […] All samples were measured in duplicate.

Assay [13] concerns the target T5, human SSTR-5. Particulars: Table 22; known SST analogs, literature values; read-out: IC50 value hSSTR 5; cited from earlier work.
Assay [14] deals with T4, SSTR-4. To be noted: Table 22; known SST analogs, literature values; cited from earlier work.

The values that follow come from patent US5770687A, “Comformationally constrained backbone cyclized somatostatin analogs” (Peptor Limited, priority 1996, dated 1998).

Where two headings read alike, the source gives them in different places. Peptide text beside a SMILES is read from it. Bounds are passed on as bounds.

T5 sequence (P35346 whole entry): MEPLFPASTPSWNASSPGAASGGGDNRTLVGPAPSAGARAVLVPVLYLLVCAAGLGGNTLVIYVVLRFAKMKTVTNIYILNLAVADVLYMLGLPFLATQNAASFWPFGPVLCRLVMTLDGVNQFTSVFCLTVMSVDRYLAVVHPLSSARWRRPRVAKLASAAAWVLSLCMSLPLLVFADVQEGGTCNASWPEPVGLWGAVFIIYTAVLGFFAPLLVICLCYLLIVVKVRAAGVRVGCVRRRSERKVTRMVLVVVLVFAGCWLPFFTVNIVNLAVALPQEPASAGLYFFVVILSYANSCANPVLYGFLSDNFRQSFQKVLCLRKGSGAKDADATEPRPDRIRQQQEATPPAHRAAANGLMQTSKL
T2 sequence (P30872 whole entry, species assumed): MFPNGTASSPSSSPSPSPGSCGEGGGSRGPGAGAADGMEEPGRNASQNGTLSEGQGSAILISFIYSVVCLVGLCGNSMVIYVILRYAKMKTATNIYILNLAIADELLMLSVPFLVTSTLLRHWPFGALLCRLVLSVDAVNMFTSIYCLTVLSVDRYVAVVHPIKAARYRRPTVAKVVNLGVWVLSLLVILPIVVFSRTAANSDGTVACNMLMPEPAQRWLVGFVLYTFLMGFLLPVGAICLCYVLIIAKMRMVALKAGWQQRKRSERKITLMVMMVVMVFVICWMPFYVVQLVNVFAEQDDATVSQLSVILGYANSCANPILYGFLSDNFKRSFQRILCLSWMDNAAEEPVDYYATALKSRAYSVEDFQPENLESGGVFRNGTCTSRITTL
T3 sequence (P32745 whole entry, species assumed): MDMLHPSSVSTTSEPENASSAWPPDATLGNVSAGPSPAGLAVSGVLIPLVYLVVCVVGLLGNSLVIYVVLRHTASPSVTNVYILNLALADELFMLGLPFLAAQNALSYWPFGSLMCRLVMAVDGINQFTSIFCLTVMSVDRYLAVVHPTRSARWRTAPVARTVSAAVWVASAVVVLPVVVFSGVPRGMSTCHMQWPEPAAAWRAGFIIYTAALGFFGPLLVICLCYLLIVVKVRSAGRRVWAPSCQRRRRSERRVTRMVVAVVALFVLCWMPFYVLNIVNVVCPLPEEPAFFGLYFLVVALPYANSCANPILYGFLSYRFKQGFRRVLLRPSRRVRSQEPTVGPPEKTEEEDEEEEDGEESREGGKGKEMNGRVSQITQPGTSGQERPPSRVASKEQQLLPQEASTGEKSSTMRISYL
T4 sequence (P31391 whole entry, species assumed): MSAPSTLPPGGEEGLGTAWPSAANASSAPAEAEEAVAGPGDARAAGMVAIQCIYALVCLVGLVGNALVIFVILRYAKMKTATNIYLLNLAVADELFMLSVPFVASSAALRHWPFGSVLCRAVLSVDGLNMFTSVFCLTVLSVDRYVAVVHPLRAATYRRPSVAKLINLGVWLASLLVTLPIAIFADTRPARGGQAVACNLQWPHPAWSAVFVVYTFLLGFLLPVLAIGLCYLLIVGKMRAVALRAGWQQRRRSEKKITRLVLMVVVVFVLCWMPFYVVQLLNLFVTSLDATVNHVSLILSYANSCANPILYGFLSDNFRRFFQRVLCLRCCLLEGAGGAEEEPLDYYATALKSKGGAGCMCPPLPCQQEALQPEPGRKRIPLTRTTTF

In the case of “GnRH: irrelevant peptide tested as negative control sample”, the “binding activity of negative control samples” value in assay [1] is “no binding activity”.

As for `CC(C)[C@@H]1NC(=O)[C@H](CCCCN)NC(=O)[C@@H](Cc2c[nH]c3ccccc23)NC(=O)[C@H](Cc2ccc(O)cc2)NC(=O)[C@@H](NC(=O)[C@H](N)Cc2ccc3ccccc3c2)CSSC[C@@H](C(=O)N[C@H](C(N)=O)[C@@H](C)O)NC1=O` [Somatuline], the IC50 was 0.5 nM at rat SSTR-5 [2], 800 nM on SSTR-1 [3], 2 nM with SSTR-2 [4] and 6 nM at SSTR-3 [5].

Take `C[C@@H](O)[C@H](NC(=O)CN1CCC(=O)NCCCN(C(=O)[C@H](N)Cc2ccccc2)CC(=O)N[C@@H](Cc2ccccc2)C(=O)N[C@H](Cc2c[nH]c3ccccc23)C(=O)N[C@@H](CCCCN)C(=O)N[C@@H]([C@@H](C)O)C1=O)C(N)=O` [PTR 3010] (HELM PEPTIDE1{[dF].[O=C(CN(CCCN[*:3])[*:1])[*:2]].F.[dW].K.T.[O=C(CN(CCC(=O)[*:3])[*:1])[*:2]].T.[am]}$PEPTIDE1,PEPTIDE1,2:R3-7:R3$$$V2.0): the IC50 at rat SSTR-5 [6] was 500 nM; on SSTR-3 [7], over 1000 nM; on SSTR-4 [8], over 10000 nM; on SSTR-1 [9], 2500 nM; on human SSTR-5 [10], over 2000 nM.

As for `CC(C)[C@@H]1NC(=O)[C@H](CCCCN)NC(=O)[C@@H](Cc2c[nH]c3ccccc23)NC(=O)[C@H](Cc2ccc(O)cc2)NC(=O)[C@H](Cc2ccccc2)NCCNC(=O)CCCN([C@@H](Cc2ccccc2)C(=O)N[C@H](C(N)=O)[C@@H](C)O)C1=O` [PTR 3046, cyclo(PheN2^6 -Tyr^7 -DTrp^8 -Lys^9 -Val^10 -PheC3^11)-Thr^12 -NH2] (HELM PEPTIDE1{[O=C([C@H](Cc1ccccc1)NCCN[*:3])[*:2]].Y.[dW].K.V.[O=C([C@H](Cc1ccccc1)N(CCCC(=O)[*:3])[*:1])[*:2]].T.[am]}$PEPTIDE1,PEPTIDE1,1:R3-6:R3$$$V2.0), the “inhibition of bombesin induced release of plasma amylase” value in the assay with plasma amylase release (3 μg/kg SC, 90 min.) was 31%; in the assay with plasma amylase release (3 μg/kg SC, 120 min.), 23%; in the assay with plasma amylase release (25 μg/kg SC, 90 min.) it was 60%; in the assay on plasma amylase release (25 μg/kg SC, 120 min.), 52%. Further, in the assay with insulin release (Wister rats, 7 μg/kg subcutaneously, glucose 0.5 g/kg IV, versus control rats, p<0.05), the “decrease in insulin release” value was determined as 43%. The “potency on insulin release relative to Octreotide” value in the assay with insulin release (in vivo, from present study and manufacturer's ED 50 of Octreotide) is given as 4 times. For the same compound, the “binding to SSTR-2, in words” value in the assay on SSTR-2 [11] is given as “does not bind”. For the same compound, the IC50 at SSTR-2 [11] (Table 21, inhibition of iodinated SRIF-14 binding, CHO cells, tested at 10^-6, 10^-7, 10^-8 M, read-out: IC50 SSTR-2) is 500 nM; at SSTR-2 [11] (text summary of Example 85 binding data, read-out: affinity to SSTR-2) it was over 1000 nM. Also, the “inhibition of bombesin-stimulated lipase secretion” value in the assay with plasma lipase release (3 μg/kg SC, 90 min.) is given as 33%; in the assay with plasma lipase release (3 μg/kg SC, 120 min.), 26%; in the assay with plasma lipase release (12.5 μg/kg SC, 90 min.), 30%; with plasma lipase release (12.5 μg/kg SC, 120 min.), 25%; in the assay on plasma lipase release (25 μg/kg SC, 90 min.) it was 51%; in the assay with plasma lipase release (25 μg/kg SC, 120 min.) it was 35%. Besides, the “inhibition of growth hormone release” value in [12] is on record as “not significantly different from saline”. Besides, the “affinity to human SSTR-5, in words” value on human SSTR-5 [10] (cloned human receptor) is “high affinity”.

With “DPhe^5 -Phe^6 -Phe^7 -DTrp^8 -Lys^9 -Thr^10 -Phe^11 -Thr^12 -NH2 [BIM-23052]”, the IC50 is 0.004 nM at rat SSTR-5 [2], 4 nM on human SSTR-5 [13] and 18 nM at SSTR-4 [14].
